The source of these data is patent US10294236B2, “Compounds as rearranged during transfection (RET) inhibitors” (GLAXOSMITHKLINE INTELLECTUAL PROPERTY DEVELOPMENT LIMITED, priority 2014, dated 2019).

Molecules are shown by their SMILES. Structures can show the parent of a compound that is named as a salt.

The target in this experiment is T1, Human RET kinase cytoplasmic domain (Homo sapiens, UniProt P07949).
T1 construct: made in house
T1 sequence (P07949 658-1114): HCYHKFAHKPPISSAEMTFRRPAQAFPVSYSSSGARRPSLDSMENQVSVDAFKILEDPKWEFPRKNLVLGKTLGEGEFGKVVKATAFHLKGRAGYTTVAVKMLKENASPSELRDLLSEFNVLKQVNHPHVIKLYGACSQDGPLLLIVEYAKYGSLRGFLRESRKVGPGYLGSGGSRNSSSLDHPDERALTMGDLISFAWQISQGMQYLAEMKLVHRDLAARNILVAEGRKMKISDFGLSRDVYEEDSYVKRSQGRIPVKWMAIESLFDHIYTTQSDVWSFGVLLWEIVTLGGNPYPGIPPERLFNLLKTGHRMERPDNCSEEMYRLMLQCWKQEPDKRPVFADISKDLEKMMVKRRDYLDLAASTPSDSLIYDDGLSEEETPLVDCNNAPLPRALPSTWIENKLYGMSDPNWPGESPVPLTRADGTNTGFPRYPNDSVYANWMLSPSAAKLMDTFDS
In words: RET kinase enzymatic assay. Type of experiment: biochemical. As to the method: GST-RET was purified using glutathione sepharose chromatography. The RET kinase enzymatic assay was performed in a total volume of 10 uL with increasing concentrations of RET kinase inhibitor as a singlet in a 384 well format as follows: RET inhibitor compound plates are prepared by adding 100 nL of RET inhibitor at different concentrations to a 384-well plate. 5 μL/well of a 2× enzyme mix (50 mM HEPES (4-(2-hydroxyethyl)-1-piperazineethanesulfonic acid); 1 mM CHAPS (3-[(3-cholamidopropyl)dimethylammonio]-1-propanesulfonate); 0.1 mg/mL BSA (bovine serum albumin); 1 mM DTT (dithiothreitol); 0.2 nM RET kinase) was added to the 384-well plate and incubated for 30 minutes at 23° C. 5 µL/well of a 2× substrate mix (50 mM HEPES; 1 mM CHAPS; 0.1 mg/mL BSA; 20 μM adenosine triphosphate; 20 mM MgCl2 and 1 μM biotinylated peptide substrate) was added and incubated for 1 hour at 23° C. […] IC50s were fitted using GraphPad Prism to a sigmoidal dose response.
As a reminder, the IC50 is the concentration that inhibits the measured activity by half. Read a low IC50 as higher potency. Consider `CCOc1cc(-c2ncc(NC(=O)Nc3cc(C(F)(F)F)c(CN4CCN(CC)CC4)cc3F)c(C)n2)c[nH]c1=O` [Example 32, 1-(2-(5-Ethoxy-6-oxo-1,6-dihydropyridin-3-yl)-4-methylpyrimidin-5-yl)-3-(4-((4-ethylpiperazin-1-yl)methyl)-2-fluoro-5-(trifluoromethyl)phenyl)urea], for which the IC50 is less than 100 nM.

The compound `CCOc1cc(-c2ncc(NC(=O)Nc3cc(C(C)(C)C(F)(F)F)on3)c(C)n2)c[nH]c1=O` [Example 15, 1-(2-(5-Ethoxy-6-oxo-1,6-dihydropyridin-3-yl)-4-methylpyrimidin-5-yl)-3-(5-(1,1,1-trifluoro-2-methylpropan-2-yl)isoxazol-3-yl)urea] yielded a 50% inhibitory concentration (IC50) of less than 100 nM.

`CCOc1cc(-c2ccc(NC(=O)Nc3ccc(CC(C)(C)CO)c(C(F)(F)F)c3)c(F)c2)c[nH]c1=O` [Example 64, 1-(4-(5-Ethoxy-6-oxo-1,6-dihydropyridin-3-yl)-2-fluorophenyl)-3-(4-(3-hydroxy-2,2-dimethylpropyl)-3-(trifluoromethyl)phenyl)urea] came in with an IC50 of less than 100 nM.

The compound `CCOc1cc(-c2ccc(NC(=O)Nc3ccc(OC(C)C)c(C(F)F)c3)c(C)n2)c[nH]c1=O` [Example 6, 1-(3-(Difluoromethyl)-4-isopropoxyphenyl)-3-(5′-ethoxy-6-methyl-6′-oxo-1′,6′-dihydro-[2,3′-bipyridin]-5-yl)urea] had an IC50 of less than 100 nM.

For `CCOc1cc(-c2ccc(NC(=O)Nc3ccc(CCN(C)C)c(C(F)(F)F)c3)c(F)c2)c[nH]c1=O` [Example 165], the IC50 was less than 100 nM.

With `CCOc1cc(Oc2ccc(NC(=O)Nc3ccc(OC4(C)COC4)c(C(F)(F)F)c3)cc2)c[nH]c1=O` [Example 49, 1-(4-((5-Ethoxy-6-oxo-1,6-dihydropyridin-3-yl)oxy)phenyl)-3-(4-((3-methyloxetan-3-yl)oxy)-3-(trifluoromethyl)phenyl)urea], the IC50 was less than 100 nM.

`CC1(Oc2ccc(NC(=O)Nc3ccc(-c4ccc(=O)[nH]c4)cc3)cc2C(F)F)COC1` [Example 169] returned an IC50 of less than 100 nM.

As for `CCOc1cc(-c2ccc(NC(=O)Nc3ccc(OC4(CO)CCC4)c(C(F)(F)F)c3)c(F)c2)c[nH]c1=O` [Example 134], the concentration for half-maximal inhibition (IC50) is less than 100 nM.

Regarding `CCOc1cc(-c2ccc(NC(=O)Nc3ccc(OC4(C)COC4)c(C(F)(F)F)c3)c(N(C)C)n2)c[nH]c1=O` [Example 112], the half-inhibitory concentration (IC50) lay within 100 to 500 nM.

In the case of `CCOc1cc(=O)[nH]cc1-c1ncc(NC(=O)Nc2cc(-n3cnc(C)c3)cc(C(F)(F)F)c2)c(C)n1` [Example 52, 1-(2-(4-Ethoxy-6-oxo-1,6-dihydropyridin-3-yl)-4-methylpyrimidin-5-yl)-3-(3-(4-methyl-1H-imidazol-1-yl)-5-(trifluoromethyl)phenyl)urea], the IC50 was less than 100 nM.

`CCOc1cc(-c2ccc(NC(=O)Nc3ccc(OC(C)(C)CO)c(C(F)(F)F)c3)c(F)c2)c[nH]c1=O` [Example 118] showed an IC50 of less than 100 nM.

`CCOc1cc(-c2ccc(NC(=O)Nc3ccc(CN4CC[C@H](F)C4)c(C(F)(F)F)c3)c(F)c2)c[nH]c1=O` [Example 154] gave a half-maximal inhibitory concentration (IC50) of less than 100 nM.

In turn, `CCOc1cc(-c2ncc(NC(=O)Nc3cc(C(F)(F)F)c(CN4CCN(CC)CC4)cc3F)cn2)c[nH]c1=O` [Example 183, 1-(2-(5-Ethoxy-6-oxo-1,6-dihydropyridin-3-yl)pyrimidin-5-yl)-3-(4-((4-ethylpiperazin-1-yl)methyl)-2-fluoro-5-(trifluoromethyl)phenyl)urea trihydrochloride] yielded an IC50 of less than 100 nM.

With `CCOc1cc(-c2ccc(NC(=O)Nc3ccc(OC4(C)COC4)c(C(F)(F)F)c3)c(F)c2)c[nH]c1=O` [Example 130], the IC50 was less than 100 nM.

`CCOc1cc(-c2ccc(NC(=O)Nc3ccc(OC4(C)CC(O)C4)c(C(F)(F)F)c3)c(F)c2)c[nH]c1=O` (stereo not shown) [Example 84] showed an IC50 of less than 100 nM.

Take `CCOc1cc(-c2cnc(NC(=O)Nc3ccc(CN(C)C)c(C(F)(F)F)c3)c(C)n2)c[nH]c1=O` [Example 114]: the IC50 lay in the range of 100 to 500 nM.
